Test results: PMC12095047, “Transport of phenoxyacetic acid herbicides by PIN-FORMED auxin transporters” (Nature Plants, 2025)
Several values for one entry are separate records, joined by “and”; a condition that tells them apart may be missing. Equal entries are not always repeated.

Assays:
PIN8 [1] = molecular target: T1, PIN8 (Arabidopsis thaliana, UniProt Q9LFP6); test: Xenopus oocyte efflux assay, PIN8; format: cell-based; conditions: for Rel. IAA transport rate: [3H]-IAA export by PIN8 from oocytes; for Rel. IAA transport rate / Rel. 2,4-D transport rate: individual experiments; for Rel. 2,4-D transport rate: [3H]-2,4-D export by PIN8 from oocytes
T1 construct: made in house
T1 sequence (Q9LFP6 1-367): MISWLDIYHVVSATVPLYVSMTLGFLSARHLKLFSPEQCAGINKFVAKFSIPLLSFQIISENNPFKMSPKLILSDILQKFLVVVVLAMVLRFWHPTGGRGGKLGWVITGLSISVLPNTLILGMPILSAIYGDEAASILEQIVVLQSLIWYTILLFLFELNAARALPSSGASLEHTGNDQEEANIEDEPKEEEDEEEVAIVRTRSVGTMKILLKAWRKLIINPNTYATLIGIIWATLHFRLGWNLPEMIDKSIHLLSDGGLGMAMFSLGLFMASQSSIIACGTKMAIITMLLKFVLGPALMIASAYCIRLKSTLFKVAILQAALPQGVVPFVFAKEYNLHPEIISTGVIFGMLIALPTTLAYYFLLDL
Experimental: Oocyte efflux experiments were carried out as described[12],[20],[26]. Briefly, oocytes were injected with 150 ng transporter complementary RNA without or with 75 ng kinase cRNA. [^3H]-IAA (25 Ci mmol^−1) and [^3H]-4-CPA (37.7 Ci mmol^−1) was purchased from RC Tritec. [^3H]-2,4-D (25 Ci mmol^−1) was purchased from ARC. Oocytes were injected with substrate to reach an internal concentration of 1 µM, corresponding to 100%. Residual radioactivity was determined for each individual oocyte by liquid scintillation counting after the time points indicated and are expressed relative to the initial 100%. Each time point represents the mean and s.e. of ten oocytes. To calculate the relative transport rate in percentage per minute, linear regression was performed. Each data point in Fig. 1b,c and Extended Data Fig. 2b,e represents the transport rate of one biological replicate using oocytes collected from different Xenopus females.

[2] = system: A. thaliana stem segments of wild type; test: Arabidopsis stem transport assay, Col-0 wild type; format: in vivo, Arabidopsis thaliana; conditions: for CPM: WT;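 on CPM: Segments numbered apical to basal with Segment 1 nearest the apical end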
Experimental: (§1) Arabidopsis stem transport assays were carried out as described. Briefly, 2 cm stem sections were cut above the rosette of 5-week-old plants and placed in inverted orientation into auxin transport buffer containing 500 pM IAA, 1% (wt/vol) sucrose, 5 mM 2-(N-morpholino)ethanesulfonic acid, pH 5.5 with or without 100 μM NPA. After 2 h the stems were transferred into auxin transport buffer containing 417 nM [^3H]-IAA or [^3H]-2,4-D as a substrate in the absence and presence of NPA. After 2 h, 5 mm segments were dissected, and the substrate was quantified using a liquid scintillation counter.

[3] = system: A. thaliana stem segments of pin1 mutants; test: Arabidopsis stem transport assay, pin1 mutant; format: in vivo, Arabidopsis thaliana
Experimental: as §1

PIN8 [4] = molecular target: T1, PIN8; parameters: method as in PMID 35768502; conditions: read-out: IAA binding affinity KD, previously described; cited from earlier work
[5] = cited from earlier work

O=C(O)Cc1c[nH]c2ccccc12 [IAA, indole-3-acetic acid]
Rel. IAA transport rate (PIN8 [1]; NPA + (10 μM)): 0.4862 % exported/min and 0.4056 % exported/min and 0.4406 % exported/min | Rel. IAA transport rate (PIN8 [1]; NPA -): 2.069 % exported/min and 2.225 % exported/min and 1.917 % exported/min | CPM ([2]; sheet EDF2H, + NPA, Segment 1, single stems): 342 CPM and 190 CPM and 344 CPM and 366 CPM and 333 CPM | CPM ([2]; sheet EDF2H, + NPA, Segment 2, single stems): 98 CPM and 93 CPM and 124 CPM and 114 CPM | CPM ([2]; sheet EDF2H, + NPA, Segment 3, single stems): 125 CPM and 94 CPM and 137 CPM and 146 CPM and 104 CPM | CPM ([2]; sheet EDF2H, - NPA, Segment 3, single stems): 181 CPM and 109 CPM and 111 CPM and 125 CPM and 156 CPM | CPM ([3]; sheet EDF2H, pin1, + NPA, Segment 2, single stems): 103 CPM and 109 CPM and 91 CPM and 134 CPM and 78 CPM | CPM ([3]; sheet EDF2H, pin1, + NPA, Segment 3, single stems): 70 CPM and 80 CPM and 98 CPM and 135 CPM and 76 CPM | CPM ([3]; sheet EDF2H, pin1, - NPA, Segment 3, single stems): 119 CPM and 97 CPM and 69 CPM and 107 CPM and 82 CPM | Kd (PIN8 [4]): 40 ± 15 µM | acid dissociation constant pKa [5]: 4.7

O=C(O)COc1ccc(Cl)cc1Cl [2,4-D, 2,4-dichlorophenoxyacetic acid]
transport rate of export from oocytes relative to IAA (PIN8 [1]; PIN8, NPA-sensitive export): about half of that determined for IAA | Rel. 2,4-D transport rate (PIN8 [1]; NPA + (10 μM)): 0.7325 % exported/min and 0.3331 % exported/min and 0.3715 % exported/min and 0.009798 % exported/min | Rel. 2,4-D transport rate (PIN8 [1]; NPA -): 1.122 % exported/min and 0.7012 % exported/min and 0.7258 % exported/min and 0.8004 % exported/min | CPM ([2]; sheet EDF2I, + NPA, Segment 2, single stems): 33 CPM and 25 CPM and 26 CPM and 39 CPM | CPM ([2]; sheet EDF2I, + NPA, Segment 3, single stems): 20 CPM and 21 CPM and 33 CPM and 30 CPM | CPM ([2]; sheet EDF2I, - NPA, Segment 1, single stems): 76 CPM and 115 CPM and 77 CPM and 107 CPM | CPM ([2]; sheet EDF2I, - NPA, Segment 2, single stems): 35 CPM and 37 CPM and 34 CPM and 29 CPM and 30 CPM | CPM ([2]; sheet EDF2I, - NPA, Segment 3, single stems): 29 CPM and 37 CPM and 35 CPM and 26 CPM and 28 CPM | transport in stem segments, lower than IAA transport ([2]; wild-type plants): about 20 fold | transport in stem segments ([3]; pin1 mutants): completely abolished | CPM ([3]; sheet EDF2I, pin1, + NPA, Segment 1, single stems): 52 CPM and 51 CPM and 42 CPM and 38 CPM | CPM ([3]; sheet EDF2I, pin1, + NPA, Segment 2, single stems): 52 CPM and 31 CPM and 27 CPM and 33 CPM | CPM ([3]; sheet EDF2I, pin1, - NPA, Segment 2, single stems): 18 CPM and 32 CPM and 22 CPM and 34 CPM and 25 CPM | acid dissociation constant pKa [5]: 2.73
